Bridge positions count the residues as written; N and C are the ends. Square brackets hold non-standard residues; d marks the D form. Peptide text beside a SMILES is read from it. Phe(4-CH2NH2) = NCc1ccc(C[C@H](N)C(=O)O)cc1; Thz(5,5-Me2) = CC1(C)SCN[C@@H]1C(=O)O; NMeR = CN[C@@H](CCCNC(=N)N)C(=O)O; 3Amb = NCc1cccc(C(=O)O)c1; dAbu = CC[C@@H](N)C(=O)O

The text below walks through data of patent US20070185077A1, “Methods of treating, preventing and inhibiting cancer metastasis and tumor formation” (Washington University, priority 2003, published 2007).

Data set [1] addresses platelet GPIIb/IIIa receptors (Homo sapiens, UniProt P05106+P08514). The conditions noted are these: cited from earlier work.
In data set [2] the target is activated platelet GPIIb/IIIa receptors (Homo sapiens, UniProt P05106+P08514). Conditions: cited from earlier work; for affinity for activated versus resting platelet GPIIb/IIIa: resting vs activated form.
Sequence of activated platelet GPIIb/IIIa receptors (P08514 32-887 limits assumed): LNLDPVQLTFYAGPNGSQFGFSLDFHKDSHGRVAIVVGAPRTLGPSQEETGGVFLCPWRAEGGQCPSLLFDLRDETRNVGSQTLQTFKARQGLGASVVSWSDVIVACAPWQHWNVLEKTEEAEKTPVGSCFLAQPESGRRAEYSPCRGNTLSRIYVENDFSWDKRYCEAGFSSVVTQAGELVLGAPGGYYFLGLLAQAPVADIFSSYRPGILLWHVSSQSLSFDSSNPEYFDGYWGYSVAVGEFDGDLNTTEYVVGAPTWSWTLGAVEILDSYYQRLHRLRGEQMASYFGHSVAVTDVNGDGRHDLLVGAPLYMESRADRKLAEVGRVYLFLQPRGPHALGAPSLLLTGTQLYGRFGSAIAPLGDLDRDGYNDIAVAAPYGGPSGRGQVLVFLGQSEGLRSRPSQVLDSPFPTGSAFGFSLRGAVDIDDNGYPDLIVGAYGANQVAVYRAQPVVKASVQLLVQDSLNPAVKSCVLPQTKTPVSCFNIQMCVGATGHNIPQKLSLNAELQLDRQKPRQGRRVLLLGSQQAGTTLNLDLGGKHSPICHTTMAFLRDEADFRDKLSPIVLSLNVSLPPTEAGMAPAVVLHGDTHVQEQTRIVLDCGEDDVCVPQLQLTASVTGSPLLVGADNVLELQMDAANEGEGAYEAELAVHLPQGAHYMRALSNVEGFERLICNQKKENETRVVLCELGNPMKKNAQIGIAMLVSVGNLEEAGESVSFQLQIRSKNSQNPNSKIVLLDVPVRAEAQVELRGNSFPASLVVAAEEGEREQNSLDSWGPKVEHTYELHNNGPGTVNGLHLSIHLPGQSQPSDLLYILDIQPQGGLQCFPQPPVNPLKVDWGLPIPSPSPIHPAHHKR
Sequence of activated platelet GPIIb/IIIa receptors (P08514 891-1039 limits assumed): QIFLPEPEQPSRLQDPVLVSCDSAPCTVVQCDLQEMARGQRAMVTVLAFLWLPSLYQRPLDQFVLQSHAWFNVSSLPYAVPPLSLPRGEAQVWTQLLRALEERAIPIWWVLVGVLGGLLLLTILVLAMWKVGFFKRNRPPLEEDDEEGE
Sequence of activated platelet GPIIb/IIIa receptors (P05106 27-788): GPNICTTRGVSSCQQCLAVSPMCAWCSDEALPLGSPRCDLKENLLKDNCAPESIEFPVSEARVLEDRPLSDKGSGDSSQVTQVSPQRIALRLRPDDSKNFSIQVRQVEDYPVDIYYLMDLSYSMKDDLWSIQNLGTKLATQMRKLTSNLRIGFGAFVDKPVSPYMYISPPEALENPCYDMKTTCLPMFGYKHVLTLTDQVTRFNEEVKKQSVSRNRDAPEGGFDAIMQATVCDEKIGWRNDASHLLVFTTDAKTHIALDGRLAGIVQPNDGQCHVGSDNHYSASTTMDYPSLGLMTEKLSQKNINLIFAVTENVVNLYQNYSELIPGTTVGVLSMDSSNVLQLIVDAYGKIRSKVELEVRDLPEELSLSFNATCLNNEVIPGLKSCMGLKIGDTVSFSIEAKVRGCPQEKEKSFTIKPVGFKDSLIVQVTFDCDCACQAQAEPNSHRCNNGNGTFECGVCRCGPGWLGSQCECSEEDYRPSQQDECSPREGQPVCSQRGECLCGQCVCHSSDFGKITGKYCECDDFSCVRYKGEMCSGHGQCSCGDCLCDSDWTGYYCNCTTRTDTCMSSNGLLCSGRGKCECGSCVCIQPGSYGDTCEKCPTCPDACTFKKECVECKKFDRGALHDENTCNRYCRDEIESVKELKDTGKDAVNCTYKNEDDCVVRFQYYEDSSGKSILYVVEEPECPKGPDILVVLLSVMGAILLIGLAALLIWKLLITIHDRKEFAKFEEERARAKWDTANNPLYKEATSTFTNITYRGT
Data set [3] addresses resting platelet GPIIb/IIIa receptors (Homo sapiens, UniProt P05106+P08514). Conditions: resting form of GPIIb/IIIa; cited from earlier work.
Another data set relates to platelet aggregation. The data set can be described thus: Platelet aggregation after in vivo oral administration (aggregometry from PRP). Details: species or system mice. The conditions noted are these: after an oral dose of 100 mg/kg. The text has this:
An activated αIIbβ3 receptor antagonist in β3^+/+ mice was utilized in examples showing the role of platelet β3 integrin in the protection from bone metastases seen in the β3^−/− mouse. […] However, those skilled in the art will recognize that additional activated αIIbβ3 receptor antagonists may be used in the methods, the efficacies of which may be determined using the protocols of the present disclosure. Additional protocols are available to those skilled in the art to determine the efficacy of other activated αIIbβ3 receptor antagonists. Such activated αIIb3 receptor antagonists are meant to be encompassed within the scope of the present invention.
(§1) C57BI6 mice were used to analyze metastasis antagonism. […] Blockade of platelet aggregation is complete at 30 minutes after oral gavage but persists for up to 10 hours. […] Thirty minutes after the first oral-gavage dose, mice were LV injected with B16 cells and evaluated for metastases 14 days later.

A further data set deals with B16 melanoma cells. The data set can be described thus: B16 LV injection metastasis model in β3+/+ mice. The format is in vivo. As to the method: The activated αIIbβ3 receptor antagonist was tested based on its ability to diminish metastases in wild type mice. […] The mice were treated 30 minutes prior to the LV injection of 1×10^5 B16 cells, and then every 12 hours for 5 doses (2.5 days of treatment out of the 14 day experiment). 14/40 (35%) mice died from bleeding complications after the LV injection indicative of effective disruption of αIIbβ3 mediated platelet aggregation. 1/17 (6%) placebo treated mice died after the LV injection procedure. […] Placebo in DMSO carrier was also administered by oral gavage. Mice were evaluated 14 days after B16 injection for bone and visceral metastases.
Mice were anaesthetized followed by injection with 30 gauge needles of 1×10^5 B16 cells in 100 μl PBS into the left cardiac ventricle as previously described. Confirmation of correct insertion was established by pulsing geyser of blood in the syringe. After the injection mice were monitored daily for 14 days.
as §1

The conditions of data set [4]: cited from earlier work.

Sequence of platelet GPIIb/IIIa receptors (P08514 32-887 limits assumed): as the sequence (P08514 32-887 limits assumed) above
Sequence of platelet GPIIb/IIIa receptors (P08514 891-1039 limits assumed): as the sequence (P08514 891-1039 limits assumed) above
Sequence of platelet GPIIb/IIIa receptors (P05106 27-788): as the sequence (P05106 27-788) above
Sequence of resting platelet GPIIb/IIIa receptors (P08514 32-887 limits assumed): as the sequence (P08514 32-887 limits assumed) above
Sequence of resting platelet GPIIb/IIIa receptors (P08514 891-1039 limits assumed): as the sequence (P08514 891-1039 limits assumed) above
Sequence of resting platelet GPIIb/IIIa receptors (P05106 27-788): as the sequence (P05106 27-788) above

As for `CC[C@H]1NC(=O)c2cccc(c2)CNC(=O)[C@H](CC(=O)O)NC(=O)CNC(=O)[C@H](CCCN=C(N)N)N(C)C1=O.CS(=O)(=O)O` [DMP728] (cyclo([NMeR]GD[3Amb][dAbu])), the platelet dissociation rate entry in data set [1] was “relatively fast”. Besides, in data set [2], the “affinity for activated versus resting platelet GPIIb/IIIa” value was “much higher affinity to the activated form”.
On to `C[C@H](CC(=O)O)NC(=O)CN1CCC[C@@H](CCC2CCNCC2)C1=O` [L734217], for which the platelet dissociation rate entry in data set [1] was “relatively fast”. Moreover, the Kd in data set [2] (activated form of GPIIb/IIIa) is 5 nM; in data set [3], 620 nM. For the same molecule, in data set [2], the “affinity for activated versus resting platelet GPIIb/IIIa” value was “much higher affinity to the activated form”.
`CC(=O)N[C@H]1CSSC[C@@H](C(=O)O)NC(=O)[C@H](CC(=O)O)NC(=O)CNC(=O)[C@H](Cc2ccc(CN)cc2)NC(=O)[C@H]2N(CSC2(C)C)C(=O)[C@@H](CC(N)=O)NC1=O` [MK852] (Ac-C[dN][Thz(5,5-Me2)][Phe(4-CH2NH2)]GDC-OH; disulfide 1-7): the platelet dissociation rate result in data set [1] is “relatively fast”. Moreover, the “affinity for activated versus resting platelet GPIIb/IIIa” value in data set [2] is on record as “much higher affinity to the activated form”.
On to `CCOC(=O)CCNC(=O)N1CCC2(CC1)CCN(c1ccc(C(=N)NO)cc1)C2=O` [ML464], for which, in the data set on platelet aggregation, the “duration of disruption of platelet aggregation” value was “up to 10 hours”. Further, the “surviving mice with bone metastases” value in the data set on B16 melanoma cells (100 mg/Kg oral every 12 hours for 5 doses, 14 days after B16 LV injection, vehicle 76%, P=0.0013) is reported as 23%. Also, the “visceral metastases versus placebo” value with B16 melanoma cells (100 mg/Kg oral every 12 hours for 5 doses, day 14, P=0.0125) was “decrease”. Further, the “mice died from bleeding complications after the LV injection” value in the data set on B16 melanoma cells (100 mg/Kg oral gavage, 30 minutes prior to LV injection, 14/40 mice) turned out to be 35%. The “number and size of visceral metastases versus placebo group” value with B16 melanoma cells (mice that did develop metastases, tumor sizes not measured) was “reduced”. Further, in the data set on B16 melanoma cells (β3+/+ mice, FIG. 5(b)), the “metastases in inhibitor treated mice compared to placebo treated mice” value is given as “decrease of metastases”.
`CCCCOC(=O)N[C@@H](CNC(=O)C[C@H]1CC(c2ccc(C(=N)N)cc2)=NO1)C(=O)OC` [roxifiban]: the platelet dissociation rate entry in data set [1] was “relatively slow”. In addition, the “affinity for activated versus resting platelet GPIIb/IIIa” value in data set [2] was “comparable Kd values”.
“Abciximab: Fab fragment of the chimeric human-murine monoclonal antibody 7E3”: in data set [4], the “human antibody response to the chimeric antibody, patients” value is on record as “approximately 6%”.
